Measurements published in patent publication US7795179B2, “Substituted azole compounds and its preparation and use thereof” (Shenyang Research Institute of Chemical Industry, priority 2004, dated 2010).

What was measured:
Format in all cases: in vivo
wheat powdery mildew = experiment: Fungicidal activity on potted plants, wheat powdery mildew; conditions: spray on potted plant, inoculation after 24 hours
cucumber downy mildew = experiment: Fungicidal activity on potted plants, cucumber downy mildew; conditions: spray on potted plant, inoculation after 24 hours
apple ring rot = experiment: Fungicidal activity on potted plants, apple ring rot; conditions: 100 ppm
Procedure: Determination of fungicidal activities against plant diseases of selected compounds were carried out by following procedure:
Technical samples were dissolved in DMF and diluted to required concentration wtih water containing 0.1% tween 80. Test solution was sprayed onto potted plant. Pathogen inoculation was carried out after 24 hours then plants were hold in growth chambers containing constant temperature and moisture for effect. When untreated plant was under desirable disease severity (after 1 week approximately), assessment were carried out by visual observation.

wheat head blight = conditions: 100 ppm
rape sclerotiniose = experiment: Fungicidal activity on potted plants, rape sclerotiniose; conditions: 100 ppm
grape white rot = experiment: Fungicidal activity on potted plants, grape white rot; conditions: 100 ppm
[1] = test system: apple alternaria leaf spot; experiment: Fungicidal activity on potted plants, apple alternaria leaf spot; conditions: 100 ppm
tomato early blight = experiment: Fungicidal activity on potted plants, tomato early blight; conditions: 100 ppm
tomato late blight = conditions: 100 ppm
[2] = test system: corn southern leaf blight; experiment: Fungicidal activity on potted plants, corn southern leaf blight; conditions: 100 ppm
grape downy mildew = experiment: Fungicidal activity on potted plants, grape downy mildew; conditions: 100 ppm
armyworm = experiment: Insecticidal activity, Potter spraying tower, armyworm; conditions: 150 ppm, mortality 2 to 3 days after treatment
Procedure: (§1) Determination of insecticidal and acaricidal activities against plant diseases of selected compounds were carried out by following procedure:
(§2) Technical samples were dissolved in acetone and diluted to required concentration with water containing 0.1% of tween 80. Armyworm, diamondback moth and green peach aphid were treated with Potter spraying tower, and culex mosquito was treated with dipping culture method. Mortality investigation of test insects was carried out 2 to 3 days after treatment.

diamondback moth = experiment: Insecticidal activity, Potter spraying tower, diamondback moth; conditions: 150 ppm, mortality 2 to 3 days after treatment
Procedure: as §1, §2

green peach aphid = experiment: Insecticidal activity, Potter spraying tower, green peach aphid; conditions: 150 ppm, mortality 2 to 3 days after treatment
Procedure: as §1, §2

culex mosquito = experiment: Insecticidal activity, dipping culture method, culex mosquito; conditions: 150 ppm, mortality 2 to 3 days after treatment
Procedure: as §1, §2

cucumber grey mold = experiment: Fungicidal activity on potted plants, cucumber grey mold; conditions: 500 ppm, spray on potted plant, inoculation after 24 hours

## CO/C=C(/C(=O)OC)c1ccccc1COc1cc(-c2ccccc2)nn1C [Compound 1]
Wheat powdery mildew; 50 ppm
  control against wheat powdery mildew: 100%
Wheat powdery mildew; 500 ppm
  control against wheat powdery mildew: 100%
Cucumber downy mildew; 50 ppm
  control against cucumber downy mildew: 100%
Cucumber downy mildew; 500 ppm
  control against cucumber downy mildew: 100%

## CO/C=C(/C(=O)OC)c1ccccc1COc1cc(-c2ccc(Cl)cc2)nn1C [Compound 2]
Wheat powdery mildew; 50 ppm
  control against wheat powdery mildew: 100%
Wheat powdery mildew; 500 ppm
  control against wheat powdery mildew: 100%
Cucumber downy mildew; 50 ppm
  control against cucumber downy mildew: 100%
Cucumber downy mildew; 500 ppm
  control against cucumber downy mildew: 100%
Apple ring rot
  control against apple ring rot: more than 80%
Wheat head blight
  control against wheat head blight: more than 80%
Rape sclerotiniose
  control against rape sclerotiniose: more than 80%
Grape white rot
  control against grape white rot: more than 80%
[1]
  control against apple alternaria leaf spot: more than 80%
Tomato early blight
  control against tomato early blight: more than 80%
Tomato late blight
  control against tomato late blight: more than 80%
[2]
  control against corn southern leaf blight: more than 80%
Grape downy mildew
  control against grape downy mildew: more than 80%

## CO/C=C(/C(=O)OC)c1ccccc1COc1cc(-c2ccc([N+](=O)[O-])cc2)nn1C [Compound 4]
Wheat powdery mildew; 50 ppm
  control against wheat powdery mildew: 100%
Wheat powdery mildew; 500 ppm
  control against wheat powdery mildew: 100%
Cucumber downy mildew; 50 ppm
  control against cucumber downy mildew: 100%
Cucumber downy mildew; 500 ppm
  control against cucumber downy mildew: 100%

## CO/C=C(/C(=O)OC)c1ccccc1COc1cc(-c2ccc(C(F)(F)F)cc2)nn1C [Compound 5]
Wheat powdery mildew; 50 ppm
  control against wheat powdery mildew: 100%
Wheat powdery mildew; 500 ppm
  control against wheat powdery mildew: 100%
Cucumber downy mildew; 50 ppm
  control against cucumber downy mildew: 100%
Cucumber downy mildew; 500 ppm
  control against cucumber downy mildew: 100%

## CO/C=C(/C(=O)OC)c1ccccc1COc1cc(-c2cc(F)c(Cl)cc2Cl)nn1C [Compound 11]
Wheat powdery mildew; 500 ppm
  control against wheat powdery mildew: 100%
Cucumber downy mildew; 500 ppm
  control against cucumber downy mildew: 100%

## CO/C=C(/C(=O)OC)c1ccccc1COc1cc(-c2ccc(OC)c(OC)c2)nn1C [Compound 12]
Wheat powdery mildew; 500 ppm
  control against wheat powdery mildew: 100%
Cucumber downy mildew; 500 ppm
  control against cucumber downy mildew: 100%

## CO/C=C(/C(=O)OC)c1ccccc1COc1c(C)c(-c2ccc(Cl)cc2)nn1C [Compound 30]
Wheat powdery mildew; 50 ppm
  control against wheat powdery mildew: 100%
Wheat powdery mildew; 500 ppm
  control against wheat powdery mildew: 100%
Cucumber downy mildew; 50 ppm
  control against cucumber downy mildew: 100%
Cucumber downy mildew; 500 ppm
  control against cucumber downy mildew: 100%
armyworm
  control of armyworm: 100%
Diamondback moth
  control of diamond backmoth: 100%
Green peach aphid
  control of aphids: 100%
Culex mosquito
  control of culex mosquitoes: 100%

## CO/C=C(/C(=O)OC)c1ccccc1COc1cc(-c2ccc(Cl)nc2)nn1C [Compound 69]
Wheat powdery mildew; 50 ppm
  control against wheat powdery mildew: 100%
Wheat powdery mildew; 500 ppm
  control against wheat powdery mildew: 100%
Cucumber downy mildew; 50 ppm
  control against cucumber downy mildew: 100%
Cucumber downy mildew; 500 ppm
  control against cucumber downy mildew: 100%

## CO/C=C(/C(=O)OC)c1ccccc1COc1cc(-c2ccc(OCC(F)(F)F)cc2)nn1C [Compound 74]
Wheat powdery mildew; 500 ppm
  control against wheat powdery mildew: 100%
Cucumber downy mildew; 500 ppm
  control against cucumber downy mildew: 100%

## CO/C=C(/C(=O)OC)c1ccccc1COc1cc(-c2ccccc2)no1 [Compound 83]
Wheat powdery mildew; 500 ppm
  control against wheat powdery mildew: 100%
Cucumber downy mildew; 500 ppm
  control against cucumber downy mildew: 100%

## CO/C=C(/C(=O)OC)c1ccccc1COc1cc(-c2ccc(Cl)cc2)no1 [Compound 84]
Wheat powdery mildew; 50 ppm
  control against wheat powdery mildew: 100%
Wheat powdery mildew; 500 ppm
  control against wheat powdery mildew: 100%
Cucumber downy mildew; 50 ppm
  control against cucumber downy mildew: 100%
Cucumber downy mildew; 500 ppm
  control against cucumber downy mildew: 100%

## CO/C=C(/C(=O)OC)c1ccccc1COc1cc(-c2ccc([N+](=O)[O-])cc2)no1 [Compound 86]
Wheat powdery mildew; 50 ppm
  control against wheat powdery mildew: 100%
Wheat powdery mildew; 500 ppm
  control against wheat powdery mildew: 100%
Cucumber downy mildew; 50 ppm
  control against cucumber downy mildew: 100%
Cucumber downy mildew; 500 ppm
  control against cucumber downy mildew: 100%

## CO/C=C(/C(=O)OC)c1ccccc1COc1cc(-c2ccc(Cl)nc2)no1 [Compound 151]
Wheat powdery mildew; 500 ppm
  control against wheat powdery mildew: 100%
Cucumber grey mold
  control against cucumber grey mold: 100%

## CO/C=C(/C(=O)OC)c1ccccc1COc1cc(-c2ccc(SC)cc2)nn1C [Compound 165]
Wheat powdery mildew; 500 ppm
  control against wheat powdery mildew: 100%

## CO/C=C(/C(=O)OC)c1ccccc1COc1cc(-c2ccc(Oc3ccccc3)cc2)nn1C [Compound 174]
Wheat powdery mildew; 500 ppm
  control against wheat powdery mildew: 100%

## CO/C=C(/C(=O)OC)c1ccccc1COc1c(Cl)c(-c2ccc(-c3ccc(Cl)cc3)cc2)nn1C [Compound 179]
Wheat powdery mildew; 500 ppm
  control against wheat powdery mildew: 100%

## CO/C=C(/C(=O)OC)c1ccccc1COc1cc(-c2ccc(Cl)cc2)nn1C(C)C [Compound 190]
Wheat powdery mildew; 500 ppm
  control against wheat powdery mildew: 100%
Cucumber downy mildew; 500 ppm
  control against cucumber downy mildew: 100%

## CO/N=C(/C(=O)OC)c1ccccc1COc1cc(-c2ccccc2)nn1C [Compound 247]
Wheat powdery mildew; 500 ppm
  control against wheat powdery mildew: 100%
Cucumber grey mold
  control against cucumber grey mold: 100%

## CO/N=C(/C(=O)OC)c1ccccc1COc1cc(-c2ccc(Cl)cc2)nn1C [Compound 248]
Wheat powdery mildew; 500 ppm
  control against wheat powdery mildew: 100%
Cucumber downy mildew; 500 ppm
  control against cucumber downy mildew: 100%

## CO/N=C(/C(=O)OC)c1ccccc1COc1cc(-c2ccc(Cl)nc2)nn1C [Compound 287]
Wheat powdery mildew; 50 ppm
  control against wheat powdery mildew: 100%
Wheat powdery mildew; 500 ppm
  control against wheat powdery mildew: 100%
Cucumber downy mildew; 50 ppm
  control against cucumber downy mildew: 100%
Cucumber downy mildew; 500 ppm
  control against cucumber downy mildew: 100%

## CNC(=O)/C(=N/OC)c1ccccc1COc1cc(-c2ccc(Cl)cc2)nn1C [Compound 356]
Wheat powdery mildew; 500 ppm
  control against wheat powdery mildew: 100%

## CNC(=O)/C(=N/OC)c1ccccc1COc1cc(-c2ccc(Cl)cc2)nn1C(C)C [Compound 435]
Wheat powdery mildew; 500 ppm
  control against wheat powdery mildew: 100%
